Laboratory results: ChEMBL document CHEMBL1201862, “PubChem BioAssay data set” (2004)
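Each compound was tested at five concentrations against cells in 96-well plates for 48 hours. Abbreviation: GI50, concentration required for 50% inhibition of growth.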 Active and inactive are the calls of the source. Cut-off read from the data, not from the text of the source: active = GI50 up to about 1.1 µM and inactive = higher.

How the values were obtained:
Test in all cases: NCI-60 cell line screen, 48 h
UO-31 = tested on: UO-31
NCI-H522 = tested on: NCI-H522
HOP-92 = tested on: HOP-92
SR = tested on: SR
SF-268 = tested on: SF-268
Hs-578T = tested on: Hs-578T
HT-29 = tested on: HT-29
NCI/ADR-RES = tested on: NCI/ADR-RES
SNB-75 = tested on: SNB-75
MCF7 = tested on: MCF7
T47D = tested on: T47D
OVCAR-5 = tested on: OVCAR-5
SNB-19 = tested on: SNB-19
SK-MEL-2 = tested on: SK-MEL-2
HCC 2998 = tested on: HCC 2998
HL-60 = tested on: HL-60
SK-MEL-5 = tested on: SK-MEL-5
SF-295 = tested on: SF-295
RXF 393 = tested on: RXF 393
MDA-MB-435 = tested on: MDA-MB-435

Compound | GI50 (UO-31) | GI50 (NCI-H522) | GI50 (HOP-92) | GI50 (SR) | GI50 (SF-268) | GI50 (Hs-578T) | GI50 (HT-29) | GI50 (NCI/ADR-RES) | GI50 (SNB-75) | GI50 (MCF7) | GI50 (T47D) | GI50 (OVCAR-5) | GI50 (SNB-19) | GI50 (SK-MEL-2) | GI50 (HCC 2998) | GI50 (HL-60) | GI50 (SK-MEL-5) | GI50 (SF-295) | GI50 (RXF 393) | GI50 (MDA-MB-435)
Cc1ccnc2nc(-c3ccc4ccccc4c3)cc(O)c12 | 3.26 µM (inactive) | 0.601 µM (active) | 0.592 µM (active) | 0.296 µM (active) | 3.1 µM (inactive) | 1.44 µM (inactive) | 0.8 µM (active) | 1.3 µM (inactive) | 1.03 µM (active) | 0.258 µM (active) | 7.82 µM (inactive) | 6.3 µM (inactive) | 3.77 µM (inactive) | 0.865 µM (active) | 1.65 µM (inactive) |  |  |  |  | 
COC(=O)[C@@H]1[C@H](O)[C@H](C)[C@H](O)[C@H](C)/C=C\C=C(\C)C(=O)Nc2c(C)c(OC(C)=O)c3c(c2O)C(=O)C(C)=C2OCOC(=C23)/C(C)=C/[C@@H](O)[C@H](O)[C@@H](C)[C@H]1OC(C)=O | 38.5 µM (inactive) |  | 80.5 µM (inactive) | 33 µM (inactive) | 78.2 µM (inactive) | > 100 µM (inactive) | 31.3 µM (inactive) |  | > 100 µM (inactive) | 26.2 µM (inactive) |  | > 100 µM (inactive) | 21.5 µM (inactive) |  |  | 5.36 µM (inactive) | 57.4 µM (inactive) | > 100 µM (inactive) | > 100 µM (inactive) | 
Cc1ccc(S(=O)(=O)NC(=O)NC(Cc2c[nH]c3ccccc23)C(=O)O)cc1 (stereo not given) | > 100 µM (inactive) | > 100 µM (inactive) | > 100 µM (inactive) | > 100 µM (inactive) | > 100 µM (inactive) | > 100 µM (inactive) | > 100 µM (inactive) | > 100 µM (inactive) | > 100 µM (inactive) |  | > 100 µM (inactive) | > 100 µM (inactive) | > 100 µM (inactive) | > 100 µM (inactive) |  | > 100 µM (inactive) | > 100 µM (inactive) | > 100 µM (inactive) | > 100 µM (inactive) | 
Cc1c(C)c(C)n(C2OC(CO)C(O)C(O)C2O)c(=S)c1C#N (stereo not given) | > 100 µM (inactive) | > 100 µM (inactive) | > 100 µM (inactive) | > 100 µM (inactive) | > 100 µM (inactive) |  | > 100 µM (inactive) | > 100 µM (inactive) | > 100 µM (inactive) | > 100 µM (inactive) | > 100 µM (inactive) | > 100 µM (inactive) | > 100 µM (inactive) | > 100 µM (inactive) | > 100 µM (inactive) | > 100 µM (inactive) | > 100 µM (inactive) | > 100 µM (inactive) | > 100 µM (inactive) | > 100 µM (inactive)
CN(C)c1ccc(/C=c2/c3ccccc3n3c2cc(C24CC5CC(CC(C5)C2)C4)[n+]3C)cc1 | 0.29 µM (active) | 0.0923 µM (active) | 0.366 µM (active) |  | 0.555 µM (active) |  | 0.299 µM (active) | 1.52 µM (inactive) | 0.394 µM (active) | 0.0615 µM (active) | 0.124 µM (active) | 0.409 µM (active) | 0.266 µM (active) | 0.313 µM (active) | 0.353 µM (active) | 0.231 µM (active) | 0.158 µM (active) | 0.32 µM (active) |  | 0.176 µM (active)
C=C1C(=O)OC2C1CC[C@H](C)C13OC(=O)CC1[C@@]23C (stereo not given in full) | > 100 µM (inactive) | 48.3 µM (inactive) | > 100 µM (inactive) | > 100 µM (inactive) | > 100 µM (inactive) |  | > 100 µM (inactive) |  | > 100 µM (inactive) |  |  | > 100 µM (inactive) | > 100 µM (inactive) | > 100 µM (inactive) | > 100 µM (inactive) | > 100 µM (inactive) | > 100 µM (inactive) | > 100 µM (inactive) | > 100 µM (inactive) | 
O=C1C=C(c2c(-c3ccccc3)[nH]c3ccccc23)C(=O)N1c1ccccc1 | 13.9 µM (inactive) |  | 9.14 µM (inactive) |  | 4.63 µM (inactive) | 4.15 µM (inactive) | 7.18 µM (inactive) | 8.45 µM (inactive) |  | 6.19 µM (inactive) |  | 14.8 µM (inactive) | 21.9 µM (inactive) | 12.5 µM (inactive) | 7.94 µM (inactive) | 3.96 µM (inactive) | 8.75 µM (inactive) | 10.6 µM (inactive) | 3.8 µM (inactive) | 4.02 µM (inactive)
COc1ccc(-c2csc(Cc3nc4ccccc4c(=O)n3-c3ccc(Cl)cc3)n2)cc1 | 34.6 µM (inactive) | 45.7 µM (inactive) |  |  | 27.5 µM (inactive) | > 100 µM (inactive) | 35.6 µM (inactive) | 56.1 µM (inactive) | > 100 µM (inactive) | 32.8 µM (inactive) |  | 23.9 µM (inactive) | 24.4 µM (inactive) | 17.8 µM (inactive) | 29.9 µM (inactive) | 32.6 µM (inactive) | 19.3 µM (inactive) | 50.4 µM (inactive) | > 100 µM (inactive) | 28.5 µM (inactive)
